Results as given in patent US20210340131A1, “PESTICIDALLY ACTIVE ISOXAZOLINE D[…] AMIDE GROUP AND AN AZETIDINE SULFONE GROUP” (SYNGENTA CROP PROTECTION AG, priority 2018, published 2021).

Tests used:
Type in all cases: in vivo
Plutella xylostella [1] = assay: Plutella xylostella (diamond back moth), artificial diet, L2 larvae; settings: 120 h, 5 days after infestation, read-out: effect in at least one of the two categories (mortality or growth inhibition)
Description: (§1) Plutella xylostella (Diamond Back Moth)
(§2) 24-well microtiter plates with artificial diet were treated with aqueous test solutions prepared from 10′000 ppm DMSO stock solutions by pipetting. After drying, the plates were infested with L2 larvae (10 to 15 per well). The samples were assessed for mortality and growth inhibition in comparison to untreated samples 5 days after infestation.
The following compounds gave an effect of at least 80% in at least one of the two categories (mortality or growth inhibition) at an application rate of 200 ppm: A1

Thrips tabaci = Thrips tabaci (onion thrips) feeding/contact activity; settings: foliar, 144 h, spray on sunflower leaf discs, mixed ages, 6 days after infestation
Description: Thrips tabaci (Onion Thrips) Feeding/Contact Activity
(§3) Sunflower leaf discs were placed on agar in 24-well microtiter plates and sprayed with aqueous test solutions prepared from 10′000 ppm DMSO stock solutions. After drying the leaf discs were infested with a thrips population of mixed ages. The samples were assessed for mortality 6 days after infestation.

Euschistus heros = Euschistus heros (neotropical brown stink bug), sprayed soybean leaves, N2 nymphs; settings: 120 h, spray on soybean leaves, 5 days after infestation, read-out: effect in at least one of the two categories (mortality or growth inhibition)
Description: Euschistus heros (Neotropical Brown Stink Bug)
Soybean leaves on agar in 24-well microtiter plates were sprayed with aqueous test solutions prepared from 10′000 ppm DMSO stock solutions. After drying the leaves were infested with N2 nymphs. The samples were assessed for mortality and growth inhibition in comparison to untreated samples 5 days after infestation.
The following compounds gave an effect of at least 80% in at least one of the two categories (mortality or growth inhibition) at an application rate of 200 ppm: A1, A2

Spodoptera littoralis = Spodoptera littoralis (Egyptian cotton leaf worm), sprayed cotton leaf discs, L1 larvae; settings: foliar, 72 h, spray on cotton leaf discs, 3 days after infestation, read-out: control (mortality, anti-feeding effect or growth inhibition)
Description: Spodoptera littoralis (Egyptian Cotton Leaf Worm)
Cotton leaf discs were placed onto agar in 24-well microtiter plates and sprayed with aqueous test solutions prepared from 10′000 ppm DMSO stock solutions. After drying the leaf discs were infested with five L1 larvae. The samples were assessed for mortality, anti-feeding effect, and growth inhibition in comparison to untreated samples 3 days after infestation. Control of Spodoptera littoralis by a test sample is given when at least one of the categories mortality, anti-feedant effect, and growth inhibition is higher than the untreated sample.

Tetranychus urticae = Tetranychus urticae (two-spotted spider mite) feeding/contact activity; settings: foliar, 192 h, spray on bean leaf discs, mixed population (mobile stages), 8 days after infestation
Description: Tetranychus urticae (Two-Spotted Spider Mite): Feeding/Contact Activity
as §3, with “Bean” for “Sunflower”, “discs” for “discs were placed”, “were” for “and”, “mite” for “thrips”, “on mixed population (mobile stages) 8” for “6”

Diabrotica balteata = Diabrotica balteata (corn root worm), sprayed maize sprouts, L2 larvae; settings: 96 h, spray on maize sprouts, 4 days after infestation, read-out: effect in at least one of the two categories (mortality or growth inhibition)
Description: Diabrotica balteata (Corn Root Worm)
Maize sprouts placed onto an agar layer in 24-well microtiter plates were treated with aqueous test solutions prepared from 10′000 ppm DMSO stock solutions by spraying. After drying, the plates were infested with L2 larvae (6 to 10 per well). The samples were assessed for mortality and growth inhibition in comparison to untreated samples 4 days after infestation. The following compounds gave an effect of at least 80% in at least one of the two categories (mortality or growth inhibition) at an application rate of 200 ppm: A1

Plutella xylostella [2] = assay: Plutella xylostella (diamond back moth), artificial diet, eggs; settings: 192 h, 8 days after infestation, read-out: effect in at least one of the two categories (mortality or growth inhibition)
Description: as §1
as §2, with “drying, Plutella eggs were pipetted through a plastic stencil onto a gel blotting paper and” for “drying,”, “plate was closed” for “plates were infested”, “it.” for “L2 larvae (10 to 15 per well).”, “8” for “5”
The following compounds gave an effect of at least 80% in at least one of the two categories (mortality or growth inhibition) at an application rate of 200 ppm: A2

COC(=O)N(C(=O)c1ccc(C2=NO[C@@](c3cc(Cl)c(F)c(Cl)c3)(C(F)(F)F)C2)cc1C)C1CN(S(=O)(=O)C(F)F)C1 [A1, methyl N-[4-[(5S)-5-(3,5-dichloro-4-fluoro-phenyl)-5-(trifluoromethyl)-4H-isoxazol-3-yl]-2-methyl-benzoyl]-N-[1-(difluoromethylsulfonyl)azetidin-3-yl]carbamate]
≥ 80%: percent effect (mortality or growth inhibition) at 200 ppm (Plutella xylostella [1]) | mortality at 200 ppm (Thrips tabaci) | percent effect (mortality or growth inhibition) at 200 ppm (Euschistus heros) | percent control (mortality, anti-feedant effect or growth inhibition) at 200 ppm (Spodoptera littoralis) | mortality at 200 ppm (Tetranychus urticae) | percent effect (mortality or growth inhibition) at 200 ppm (Diabrotica balteata)

CCOC(=O)N(C(=O)c1ccc(C2=NO[C@@](c3cc(Cl)c(F)c(Cl)c3)(C(F)(F)F)C2)cc1C)C1CN(S(=O)(=O)C(F)F)C1 [A2, ethyl N-[4-[(5S)-5-(3,5-dichloro-4-fluoro-phenyl)-5-(trifluoromethyl)-4H-isoxazol-3-yl]-2-methyl-benzoyl]-N-[1-(difluoromethylsulfonyl)azetidin-3-yl]carbamate]
≥ 80%: percent effect (mortality or growth inhibition) at 200 ppm (Plutella xylostella [2]) | percent effect (mortality or growth inhibition) at 200 ppm (Euschistus heros) | percent control (mortality, anti-feedant effect or growth inhibition) at 200 ppm (Spodoptera littoralis)
